Experimental data taken from patent publication US20240130942A1, “Composition for Treating Hair and Skin” (DR. KURT WOLFF GMBH & CO. KG, priority 2020, published 2024).
“Also recorded” adds a separate entry of the source.

What was measured:
[1] = system: Human epidermal keratinocyte cells (HaCaT); assay: CyQUANT assay, proliferation of HaCaT cells; type: cell-based; settings: after 48 h and 72 h of cultivation, versus control without DMG, FIG. 2
Protocol: (§1) 1. As part of an in vitro study, the effect of Na-dimethylglycinate was examined in a pH range from […] in a cell culture model with human horn-forming keratinocyte cells. For this purpose, HaCaT cells were cultured for 1, 3, 5, and 7 days in DMEM medium (including fetal calf serum and an antibiotic-antimycotic mix) and, among other things, the viability, proliferation and migration of the cells were determined using suitable measurement methods, and the expression of the growth factors relevant for cell growth was measured.
A so-called CyQUANT assay was carried out to measure the proliferation. In this fluorescence-based assay, the fluorescent dye used binds to DNA (deoxyribonucleic acid), with the content of cellular DNA being a direct measure of the number of cells in a sample.
Human epidermal keratinocyte cells (HaCaT) were seeded in a 96-well plate at a cell density of 5,000 cells/well and cultured in medium (DMEM with 10% FBS, 1% penicillin-streptomycin, 0.5% fungizone). The next day and after a further 24 h as well as 48 h and 72 h of cultivation at 37° C. and 5% by volume CO2, the cell culture medium without (control) or with the active ingredient concentrations already present was changed. […]
Cell proliferation was determined using the CyQUANT assay. The fluorescence was measured in triplicate and normalized to the control at 24 hours. […]

[2] = system: Human epidermal keratinocyte cells (HaCaT); assay: MTT assay, cell viability of HaCaT cells; type: cell-based; settings: after 48 h and 72 h of cultivation, versus control without DMG, FIG. 1
Protocol: as §1
For this measurement, a so-called MTT assay was used to determine cellular metabolic activity as an indicator of cell viability and cytotoxicity. This colorimetric assay is based on the reduction of a yellow tetrazolium salt (3-(4,5-dimethylthiazol-2-yl)-2,5-diphenyltetrazolium bromide or MTT) to purple formazan crystals by metabolically active cells.
Human epidermal keratinocyte cells (HaCaT) were seeded in a 96-well plate at a cell density of 5,000 cells/well and cultured in medium (DMEM with 10% FBS, 1% penicillin-streptomycin, 0.5% fungizone). […]
Cell viability was determined using the MTT assay. The absorption was measured in quadruplicate and normalized to the control at 24 hours. […]

VEGF = assay: Gene expression of VEGF by qRT-PCR in HaCaT cells; type: cell-based, human; settings: after 24 hours of cultivation, normalized to GAPDH, versus control without DMG, FIG. 4
Protocol: VEGF (Vascular Endothelial Growth Factor) promotes the growth and formation of new blood and lymphatic vessels. Gene expression was measured using a standard method known as quantitative real-time PCR (qRT-PCR).
Human epidermal keratinocyte cells (HaCaT) were seeded in a 6-well plate at a cell density of 140,000 cells/well and cultured in medium (DMEM with 10% FBS, 1% penicillin-streptomycin, 0.5% fungizone) at 37° C. and 5% by volume CO2. The next day, the cell culture medium without (control) or with the active substance concentrations already present in each case was changed, and the cells were harvested after 24 h. Gene expression was measured using qRT-PCR based on studies previously published in B. V. Diaz, M.-C. Lenoir, A. Ladoux, C. Frelin, M. Demarchez, S. Michel, Journal of Biological Chemistry 2000, 275, 642-650.
The relative gene expression determined by qRT-PCR (triple determination, normalized to the respective gene expression of a constitutively expressed gene; GAPDH—glyceraldehyde-3-phosphate dehydrogenase) of VEGF is shown. Shown is the mean value with standard deviation.

HaCaT cells = assay: Wound healing assay, cell migration; type: cell-based, human; settings: images after 16 h, 20 h and 24 h, different DMG concentrations, compared to controls without DMG; FIG. 3
Protocol: as §1
A so-called wound healing assay was carried out to measure migration, based on previously published studies in T. Kawabata, T. Otsuka, K. Fujita, G. Sakai, R. Matsushima-Nishiwaki, O. Kozawa, H. Tokuda, International Journal of Molecular Medicine 2018, 42, 3149-3156. The principle is based on measuring the migration of cells to a cultivation surface that has not yet been colonized over time. […]
The wound was created at time 0 h and images were taken after 16 h, 20 h and 24 h of cultivation. Based on the image recordings, the cultivation surface, which was not yet colonized with cells, was determined using the ImageJ software. The measured values are normalized to the point in time 0 h (maximum size of the wound) and given in %.

CN(C)CC(=O)[O-].[Na+] [DMG, sodium dimethylglycinate]
cell proliferation (CyQUANT assay, fluorescence normalized to the control at 24 hours) [1]: clear increase
cell viability (MTT assay, absorption normalized to the control at 24 hours) [2]: clear increase
relative gene expression of VEGF (VEGF): significant increase; also recorded: significantly increased
migration or wound closure (HaCaT cells): significantly faster
